Reference: patent publication US6646124B2, “Substituted 4-oxo-napthyridine-3-carboxamides: GABA brain receptor ligands” (Neurogen Corporation, priority 1997, dated 2003)

melting point | Structure (SMILES)
235 to 237 °C | CCOc1ccc2[nH]cc(C(=O)NCC3CCCO3)c(=O)c2n1 (stereo not shown) [Compound 4, N-(2-Tetrahydrofuranyl)methyl 6-ethoxy-4-oxo-1,4-tetrahydro-1,5-naphthyridine-3-carboxamide]
190 °C | CCOc1ccc2[nH]cc(C(=O)NCc3ccc4c(c3)OCO4)c(=O)c2n1 [Compound 9, N-Piperonyl 6-ethoxy-4-oxo-1,4-tetrahydro-1,5-naphthyridine-3-carboxamide]
137 to 139 °C | O=C(NCc1ccccc1F)c1c[nH]c2ccc(N3CCOCC3)nc2c1=O [Compound 7, N-(2-Fluorobenzyl) 6-morpholino-4-oxo-1,4-tetrahydro-1,5-naphthyridine-3-carboxamide]
257 to 259 °C (dec.) | CCSCCNC(=O)c1c[nH]c2ccc(OC)nc2c1=O [Compound 5, N-[2-(ethylthio)ethyl] 6-methoxy-4-oxo-1,4-dihydro-1,5-napththyridine-3-carboxamide]
